The subject of this test is BDF1 mice, P1081 chloroleukemia ip, survival T/C. As to the kind of experiment: NCI In Vivo Anticancer Drug Screen. Data for tumor model P1081 Chloroleukemia (intraperitoneal) in B6D2F1 (BDF1) mice. To be noted: endpoint: mean survival time, higher = longer survival. How it is done:
The antitumor activity of compounds was measured in mice bearing transplantable tumors. Survival or tumor size were measured and the results are expressed as the measurement made in the treated group (T) divided by the measurement made in the vehicle treated control group (C). The tumor model used in this assay is P1081 Chloroleukemia (intraperitoneal) in B6D2F1 (BDF1) mice

The mark [1] stands for this setting: dose: 10.0 mg/kg/injection, schedule: Q01DX010 (ip), vehicle: saline.
Where [2] appears, read: dose: 20.0 mg/kg/injection, schedule: Q01DX010 (ip), vehicle: saline.
Setting [3] is: dose: 40.0 mg/kg/injection, schedule: Q01DX010 (ip), vehicle: saline.
Where [4] appears, read: dose: 25.0 mg/kg/injection, schedule: Q01DX Z (ip), vehicle: carboxymethylcellulose (CMC).
The mark [5] stands for this setting: dose: 12.5 mg/kg/injection, schedule: Q01DX010 (ip), vehicle: saline.
[6] abbreviates: dose: 250.0 micrograms/kg/injection, schedule: Q01DX010 (ip), vehicle: saline.
[7] abbreviates: dose: 500.0 micrograms/kg/injection, schedule: Q01DX010 (ip), vehicle: saline.
Setting [8] is: dose: 125.0 mg/kg/injection, schedule: Q01DX Z (sc), vehicle: steriod suspending solution.

Values joined by “and” are separate entries in the source; they are usually repeats but may differ in a detail not shown here. Equal values may be shown once. Inconclusive results and toxic doses are left out. Numbered stars: 1 amine (or outer) side, 2 acyl side, 3 side chain; on linkers, the order of the positions; unused ones are H or OH. Bridge positions count the residues as written; N and C are the ends. Square brackets hold non-standard residues; d marks the D form. Peptide text beside a SMILES is read from it. I, II: the chains in the order shown. Actinocin(9to1) = Cc1c2oc3c(C)ccc(C(=O)[*:1])c3nc-2c(C(=O)[*:2])c(N)c1=O; aThr = C[C@H](O)[C@H](N)C(=O)O; NMeV = CN[C@H](C(=O)O)C(C)C; Sar = CNCC(=O)O

Consider `Cc1c2oc3c(C)ccc(C(=O)N[C@@H]4C(=O)N[C@H](C(C)C)C(=O)N5CCC[C@H]5C(=O)N(C)CC(=O)N(C)[C@@H](C(C)C)C(=O)O[C@H]4C)c3nc-2c(C(=O)N[C@@H]2C(=O)N[C@H](C(C)C)C(=O)N3CCC[C@H]3C(=O)N(C)CC(=O)N(C)[C@@H](C(C)C)C(=O)O[C@H]2C)c(N)c1=O` (I: [aThr][dV]P[Sar][NMeV] / II: [aThr][dV]P[Sar][NMeV]; ester I:1-I:C, II:1-II:C; linker I:N-II:N via Actinocin(9to1)), for which the T/C was 103 % of control (dose: 0.7 micrograms/kg/injection, schedule: Q01DX Z (ip), vehicle: saline); 94 % of control (dose: 1.5 micrograms/kg/injection, schedule: Q01DX Z (ip), vehicle: saline); 110 % of control (dose: 6.2 micrograms/kg/injection, schedule: Q01DX Z (ip), vehicle: saline); 155 % of control (dose: 12.5 micrograms/kg/injection, schedule: Q01DX010 (ip), vehicle: other); 190 % of control and 205 % of control (dose: 25.0 micrograms/kg/injection, schedule: Q01DX010 (ip), vehicle: other); 119 % of control (dose: 25.0 micrograms/kg/injection, schedule: Q01DX Z (ip), vehicle: saline). Also, the T/C was 180 % of control and 245 % of control (dose: 50.0 micrograms/kg/injection, schedule: Q01DX010 (ip), vehicle: other); 104 % of control (dose: 50.0 micrograms/kg/injection, schedule: Q01DX Z (ip), vehicle: saline); 105 % of control (dose: 100.0 micrograms/kg/injection, schedule: Q01DX010 (ip), vehicle: other); 102 % of control (dose: 100.0 micrograms/kg/injection, schedule: Q01DX Z (ip), vehicle: saline).

As to `CC1CCOS(=O)O1` (stereo not given), the T/C was 101 % of control (dose: 2.5 mg/kg/injection, schedule: Q01DX Z (ip), vehicle: carboxymethylcellulose (CMC)); 115 % of control (dose: 5.0 mg/kg/injection, schedule: Q01DX Z (ip), vehicle: carboxymethylcellulose (CMC)); 115 % of control under setting [1]; 86 % of control (dose: 10.0 mg/kg/injection, schedule: Q01DX Z (ip), vehicle: carboxymethylcellulose (CMC)); 110 % of control under setting [2]; 95 % of control under setting [3].

`CC[C@]1(O)C[C@H]2CN(CCc3c([nH]c4ccccc34)[C@@](C(=O)OC)(c3cc4c(cc3OC)N(C=O)[C@H]3[C@@](O)(C(=O)OC)[C@H](OC(C)=O)[C@]5(CC)C=CCN6CC[C@]43[C@@H]65)C2)C1`: the T/C by setting is: (dose: 0.06 mg/kg/injection, schedule: Q01DX Z (ip), vehicle: water) 112 % of control; (dose: 1.0 mg/kg/injection, schedule: Q01DX Z (ip), vehicle: water) 118 % of control.

For the compound `C[C@@H]1C[C@H]2CC[C@H](O2)[C@H](C)C(=O)O[C@@H](C)C[C@@H]2CC[C@@H](O2)[C@@H](C)C(=O)O[C@H](C)C[C@H]2CC[C@H](O2)[C@H](C)C(=O)O[C@@H](C)C[C@@H]2CC[C@@H](O2)[C@@H](C)C(=O)O1`, the T/C was 107 % of control under setting [4]; 109 % of control (dose: 50.0 mg/kg/injection, schedule: Q01DX Z (ip), vehicle: carboxymethylcellulose (CMC)); 100 % of control (dose: 100.0 mg/kg/injection, schedule: Q01DX Z (ip), vehicle: carboxymethylcellulose (CMC)); 93 % of control (dose: 200.0 mg/kg/injection, schedule: Q01DX Z (ip), vehicle: carboxymethylcellulose (CMC)).

On to `O=NN(CCCl)C(=O)NCCCl`, for which the T/C by setting is: (dose: 1.0 mg/kg/injection, schedule: Q01DX Z (ip), vehicle: saline) 95 % of control; (dose: 2.0 mg/kg/injection, schedule: Q01DX Z (ip), vehicle: saline) 112 % of control and 96 % of control; (dose: 3.13 mg/kg/injection, schedule: Q01DX010 (ip), vehicle: saline) 220 % of control; (dose: 4.0 mg/kg/injection, schedule: Q01DX Z (ip), vehicle: saline) 114 % of control and 116 % of control; (dose: 6.25 mg/kg/injection, schedule: Q01DX010 (ip), vehicle: saline) 290 % of control and 300 % of control; (dose: 8.0 mg/kg/injection, schedule: Q01DX Z (ip), vehicle: saline) 118 % of control. Also, the T/C under setting [5] is 150 % of control and the T/C (dose: 16.0 mg/kg/injection, schedule: Q01DX Z (ip), vehicle: saline) was 92 % of control.

In the case of `C[n+]1c2ccccc2nc2c(N)cc(N)cc21`, the T/C runs as follows: (dose: 1.6 mg/kg/injection, schedule: Q01DX Z (ip), vehicle: carboxymethylcellulose (CMC)) 100 % of control; (dose: 12.5 mg/kg/injection, schedule: Q01DX Z (ip), vehicle: carboxymethylcellulose (CMC)) 110 % of control; under setting [4], 101 % of control.

With `O=C(Nc1ccc(C2=NCCN2)cc1)c1ccc(C(=O)Nc2ccc(C3=NCCN3)cc2)c(Cl)c1`, the T/C (dose: 1.8 mg/kg/injection, schedule: Q01DX Z (ip), vehicle: water) is 97 % of control; the T/C (dose: 7.5 mg/kg/injection, schedule: Q01DX Z (ip), vehicle: water) was 97 % of control; the T/C (dose: 60.0 mg/kg/injection, schedule: Q01DX Z (ip), vehicle: water) was 86 % of control.

With `CC(=O)NC1=C(N2CC2)C(=O)C(NC(C)=O)=C(N2CC2)C1=O`, the T/C runs as follows: under setting [6], 188 % of control and 210 % of control; under setting [7], 255 % of control and 270 % of control; (dose: 1000.0 micrograms/kg/injection, schedule: Q01DX010 (ip), vehicle: saline) 115 % of control.

In the case of `CC/C(=C(/CC)c1ccc(O)cc1)c1ccc(O)cc1`, the T/C is 100 % of control under setting [5]; 95 % of control (dose: 16.0 mg/kg/injection, schedule: Q01DX Z (sc), vehicle: steriod suspending solution); 100 % of control and 105 % of control (dose: 25.0 mg/kg/injection, schedule: Q01DX010 (ip), vehicle: saline); 100 % of control and 105 % of control (dose: 50.0 mg/kg/injection, schedule: Q01DX010 (ip), vehicle: saline); 88 % of control under setting [8].

As for `CS(=O)(=O)OCCN(CCOS(C)(=O)=O)c1ccc(N=O)cc1`, the T/C was 122 % of control (dose: 0.5 mg/kg/injection, schedule: Q01DX010 (ip), vehicle: saline); 104 % of control (dose: 1.0 mg/kg/injection, schedule: Q01DX010 (ip), vehicle: saline); 155 % of control (dose: 62.5 micrograms/kg/injection, schedule: Q01DX010 (ip), vehicle: saline); 194 % of control (dose: 125.0 micrograms/kg/injection, schedule: Q01DX010 (ip), vehicle: saline); 277 % of control under setting [6]; 238 % of control under setting [7].

On to `C[C@]12CCC(=O)C=C1CC[C@@H]1[C@@H]2CC[C@@]2(C)[C@H]1CC[C@]2(C)O`, for which the T/C was 101 % of control (dose: 62.5 mg/kg/injection, schedule: Q01DX Z (sc), vehicle: steriod suspending solution); 101 % of control under setting [8]; 106 % of control and 108 % of control (dose: 250.0 mg/kg/injection, schedule: Q01DX Z (sc), vehicle: steriod suspending solution); 91 % of control and 101 % of control (dose: 500.0 mg/kg/injection, schedule: Q01DX Z (sc), vehicle: steriod suspending solution); 100 % of control (dose: 1000.0 mg/kg/injection, schedule: Q01DX Z (sc), vehicle: steriod suspending solution).

Turning to `Nc1nc(SCc2ccccc2)c2[nH]cnc2n1`, the T/C reads like this: (dose: 4.7 mg/kg/injection, schedule: Q01DX Z (ip), vehicle: carboxymethylcellulose (CMC)) 91 % of control; (dose: 8.0 mg/kg/injection, schedule: Q01DX010 (ip), vehicle: saline) 110 % of control and 116 % of control; (dose: 9.4 mg/kg/injection, schedule: Q01DX Z (ip), vehicle: carboxymethylcellulose (CMC)) 90 % of control; (dose: 16.0 mg/kg/injection, schedule: Q01DX010 (ip), vehicle: saline) 116 % of control and 105 % of control; (dose: 18.75 mg/kg/injection, schedule: Q01DX Z (ip), vehicle: carboxymethylcellulose (CMC)) 100 % of control; (dose: 32.0 mg/kg/injection, schedule: Q01DX010 (ip), vehicle: saline) 110 % of control and 122 % of control. Moreover, the T/C (dose: 64.0 mg/kg/injection, schedule: Q01DX010 (ip), vehicle: saline) was 105 % of control.

As to `NC(=O)c1cn(C2OC(CO)C(O)C2O)c2ncnc(N)c12` (stereo not given), the T/C (dose: 0.25 mg/kg/injection, schedule: Q01DX Z (ip), vehicle: carboxymethylcellulose (CMC)) was 102 % of control.

`O=c1[nH]cc(F)c(=O)[nH]1`: the T/C is 99 % of control (dose: 1.56 mg/kg/injection, schedule: Q01DX Z (ip), vehicle: saline); 161 % of control and 165 % of control under setting [1]; 150 % of control (dose: 12.5 mg/kg/injection, schedule: Q01DX Z (ip), vehicle: saline); 200 % of control and 230 % of control under setting [2]; 110 % of control and 94 % of control under setting [3]; 108 % of control (dose: 50.0 mg/kg/injection, schedule: Q01DX Z (ip), vehicle: saline). Moreover, where the note is “dose: 100.0 mg/kg/injection, schedule: Q01DX Z (ip), vehicle: saline”, the T/C was 96 % of control.

These data come from PubChem BioAssay AID246 (DTP/NCI, 2004).
